Test system: hypertensive subjects
Experiment: Adverse events (TEAEs, SAEs, AESI, study drug discontinuation, dose modification);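 also: counts of spontaneously reported adverse events in the Safety Analysis Set, subjects grouped by treatment actually received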
Format: in vivo, human
Description: In analyses performed on the Safety Analysis Set, subjects will be analyzed according to their actual treatment received.

In the case of `CC(=O)N[C@H]1CC[C@H](NC(=O)CN2CCN(c3nncc(-c4ccc(C)cc4)n3)CC2)CC1` [Compound A HBr], the “TEAE leading to permanent discontinuation from study drug: Orthostatic hypotension” value (Part 1, 100 mg QD (N = 30)) is reported as 0 n (%), the “TEAE leading to permanent discontinuation from study drug: Vascular disorders” value (Part 1, 100 mg QD (N = 30)) is reported as 1 (3.3) n (%) and the “On-treatment TEAE: Blood and lymphatic system disorders” value (Part 1, Active (N = 133)) is reported as 2 (1.5) n (%). For the same molecule, the “On-treatment TEAE: Blood and lymphatic system disorders, Mild” value (Part 1, Active (N = 133)) was 2 (1.5) n (%), the “On-treatment TEAE: Blood creatinine increased” value (Part 1, Active (N = 133)) was 3 (2.3) n (%) and the “On-treatment TEAE: Blood creatinine increased, Mild” value (Part 1, Active (N = 133)) was 3 (2.3) n (%). For the same molecule, the “On-treatment TEAE: Cardiac disorders” value (Part 1, Active (N = 133)) was 4 (3.0) n (%), the “On-treatment TEAE: Cortisol decreased” value (Part 1, Active (N = 133)) was 3 (2.3) n (%) and the “On-treatment TEAE: Cortisol decreased, Mild” value (Part 1, Active (N = 133)) was 3 (2.3) n (%). For the same molecule, the “On-treatment TEAE: Dizziness” value (Part 1, Active (N = 133)) was 3 (2.3) n (%), the “On-treatment TEAE: Gastrointestinal disorders” value (Part 1, Active (N = 133)) was 6 (4.5) n (%) and the “On-treatment TEAE: Gastrointestinal disorders, Mild” value (Part 1, Active (N = 133)) was 5 (3.8) n (%). The “On-treatment TEAE: General disorders and administration site conditions” value (Part 1, Active (N = 133)) was 5 (3.8) n (%), the “On-treatment TEAE: General disorders and administration site conditions, Mild” value (Part 1, Active (N = 133)) was 2 (1.5) n (%) and the “On-treatment TEAE: Glomerular filtration rate decreased” value (Part 1, Active (N = 133)) was 9 (6.8) n (%). For the same molecule, the “On-treatment TEAE: Glomerular filtration rate decreased, Mild” value (Part 1, Active (N = 133)) was 8 (6.0) n (%), the “On-treatment TEAE: Headache” value (Part 1, Active (N = 133)) was 3 (2.3) n (%) and the “On-treatment TEAE: Headache, Mild” value (Part 1, Active (N = 133)) was 3 (2.3) n (%). The “On-treatment TEAE: Hyperkalaemia” value (Part 1, Active (N = 133)) was 31 (23.3) n (%), the “On-treatment TEAE: Hyperkalaemia, Mild” value (Part 1, Active (N = 133)) was 26 (19.5) n (%) and the “On-treatment TEAE: Hyperkalaemia, Moderate” value (Part 1, Active (N = 133)) was 4 (3.0) n (%). For the same molecule, the “On-treatment TEAE: Hyperkalaemia, Severe” value (Part 1, Active (N = 133)) was 1 (0.8) n (%), the “On-treatment TEAE: Hypertension” value (Part 1, Active (N = 133)) was 5 (3.8) n (%) and the “On-treatment TEAE: Hypertension, Moderate” value (Part 1, Active (N = 133)) was 3 (2.3) n (%). For the same molecule, the “On-treatment TEAE: Infections and infestations” value (Part 1, Active (N = 133)) was 11 (8.3) n (%), the “On-treatment TEAE: Infections and infestations, Mild” value (Part 1, Active (N = 133)) was 5 (3.8) n (%) and the “On-treatment TEAE: Infections and infestations, Moderate” value (Part 1, Active (N = 133)) was 6 (4.5) n (%). For the same molecule, the “On-treatment TEAE: Investigations” value (Part 1, Active (N = 133)) was 21 (15.8) n (%), the “On-treatment TEAE: Investigations, Mild” value (Part 1, Active (N = 133)) was 17 (12.8) n (%) and the “On-treatment TEAE: Investigations, Moderate” value (Part 1, Active (N = 133)) was 4 (3.0) n (%). For the same molecule, the “On-treatment TEAE: Metabolism and nutrition disorders” value (Part 1, Active (N = 133)) was 34 (25.6) n (%), the “On-treatment TEAE: Metabolism and nutrition disorders, Mild” value (Part 1, Active (N = 133)) was 29 (21.8) n (%) and the “On-treatment TEAE: Metabolism and nutrition disorders, Moderate” value (Part 1, Active (N = 133)) was 4 (3.0) n (%). The “On-treatment TEAE: Nervous system disorders” value (Part 1, Active (N = 133)) was 8 (6.0) n (%), the “On-treatment TEAE: Nervous system disorders, Mild” value (Part 1, Active (N = 133)) was 6 (4.5) n (%) and the “On-treatment TEAE: Orthostatic hypotension” value (Part 1, Active (N = 133)) was 3 (2.3) n (%). For the same molecule, the “On-treatment TEAE: Orthostatic hypotension, Mild” value (Part 1, Active (N = 133)) was 3 (2.3) n (%), the “On-treatment TEAE: Psychiatric disorders” value (Part 1, Active (N = 133)) was 3 (2.3) n (%) and the “On-treatment TEAE: Psychiatric disorders, Moderate” value (Part 1, Active (N = 133)) was 3 (2.3) n (%). The “On-treatment TEAE: Urinary tract infection” value (Part 1, Active (N = 133)) was 7 (5.3) n (%), the “On-treatment TEAE: Urinary tract infection, Mild” value (Part 1, Active (N = 133)) was 4 (3.0) n (%) and the “On-treatment TEAE: Vascular disorders” value (Part 1, Active (N = 133)) was 9 (6.8) n (%). The “On-treatment TEAE: Vascular disorders, Mild” value (Part 1, Active (N = 133)) was 5 (3.8) n (%), the “On-treatment TEAE: Vascular disorders, Moderate” value (Part 1, Active (N = 133)) was 4 (3.0) n (%) and the “On-treatment TEAE: any, Mild” value (Part 1, Active (N = 133)) was 47 (35.3) n (%). The “On-treatment TEAE: any, Moderate” value (Part 1, Active (N = 133)) was 25 (18.8) n (%), the “On-treatment TEAE: any, Severe” value (Part 1, Active (N = 133)) was 1 (0.8) n (%) and the “Subjects with any On-treatment TEAEs leading to withdrawal from study drug” value (Part 1, Active (N = 133)) was 10 (7.5) n (%). For the same molecule, the “TEAE leading to permanent discontinuation from study drug: Activated partial thromboplastin time prolonged” value (Part 1, Active (N = 133)) was 1 (0.8) n (%), the “TEAE leading to permanent discontinuation from study drug: Cardiac disorders” value (Part 1, Active (N = 133)) was 1 (0.8) n (%) and the “TEAE leading to permanent discontinuation from study drug: Coronary artery disease” value (Part 1, Active (N = 133)) was 1 (0.8) n (%). The “TEAE leading to permanent discontinuation from study drug: Dizziness” value (Part 1, Active (N = 133)) was 1 (0.8) n (%), the “TEAE leading to permanent discontinuation from study drug: Hyperkalaemia” value (Part 1, Active (N = 133)) was 5 (3.8) n (%) and the “TEAE leading to permanent discontinuation from study drug: Hypertension” value (Part 1, Active (N = 133)) was 1 (0.8) n (%). The “TEAE leading to permanent discontinuation from study drug: Hypotension” value (Part 1, Active (N = 133)) was 1 (0.8) n (%), the “TEAE leading to permanent discontinuation from study drug: Investigations” value (Part 1, Active (N = 133)) was 1 (0.8) n (%) and the “TEAE leading to permanent discontinuation from study drug: Metabolism and nutrition disorders” value (Part 1, Active (N = 133)) was 5 (3.8) n (%). The “TEAE leading to permanent discontinuation from study drug: Nervous system disorders” value (Part 1, Active (N = 133)) was 1 (0.8) n (%), the “TEAE leading to permanent discontinuation from study drug: Orthostatic hypotension” value (Part 1, Active (N = 133)) was 1 (0.8) n (%) and the “TEAE leading to permanent discontinuation from study drug: Vascular disorders” value (Part 1, Active (N = 133)) was 3 (2.3) n (%). The “Dose titration: Hyperkalemia, subjects n (%)” value (Part 1 All active (N 159)) was 6 (3.8%), the “Dose titration: Hyponatremia, subjects n (%)” value (Part 1 All active (N 159)) was 0 and the “Dose titration: Other possibly related, subjects n (%)” value (Part 1 All active (N 159)) was 0. For the same molecule, the “Dose titration: Other unrelated, subjects n (%)” value (Part 1 All active (N 159)) was 1 (0.6%), the “Study drug discontinuation: Hyperkalemia, subjects n (%)” value (Part 1 All active (N 159)) was 6 (3.8%) and the “Study drug discontinuation: Hyponatremia, subjects n (%)” value (Part 1 All active (N 159)) was 0. The “Study drug discontinuation: Hypotension, subjects n (%)” value (Part 1 All active (N 159)) was 2 (1.2%), the “Study drug discontinuation: Other possibly related, subjects n (%)” value (Part 1 All active (N 159)) was 1 (0.6%) and the “Study drug discontinuation: Other unrelated, subjects n (%)” value (Part 1 All active (N 159)) was 11 (6.9%). For the same molecule, the Deaths (Part 1 or Part 2) was “No deaths were reported”, the “Subjects with TEAE resulting in dose modification” value (Part 2) was 7 and the “Dose titration: Hyperkalemia, subjects n (%)” value (Part 2 100mg QD (N 31)) was 1 (3.2%). For the same molecule, the “Dose titration: Hyponatremia, subjects n (%)” value (Part 2 100mg QD (N 31)) was 1 (3.2%), the “Dose titration: Other possibly related, subjects n (%)” value (Part 2 100mg QD (N 31)) was 0 and the “Dose titration: Other unrelated, subjects n (%)” value (Part 2 100mg QD (N 31)) was 0. For the same molecule, the “Study drug discontinuation: Hyperkalemia, subjects n (%)” value (Part 2 100mg QD (N 31)) was 0, the “Study drug discontinuation: Hyponatremia, subjects n (%)” value (Part 2 100mg QD (N 31)) was 1 (3.4%) and the “Study drug discontinuation: Hypotension, subjects n (%)” value (Part 2 100mg QD (N 31)) was 1 (2.8%). The “Study drug discontinuation: Other possibly related, subjects n (%)” value (Part 2 100mg QD (N 31)) was 0, the “Study drug discontinuation: Other unrelated, subjects n (%)” value (Part 2 100mg QD (N 31)) was 1 (2.8%) and the “Subjects with any On-treatment TEAEs leading to withdrawal from study drug” value (Part 2, 100 mg QD (N = 31)) was 2 (6.5) n (%). The “TEAE leading to permanent withdrawal from study drug: Glomerular filtration rate decreased” value (Part 2, 100 mg QD (N = 31)) was 1 (3.2) n (%), the “TEAE leading to permanent withdrawal from study drug: Hyponatraemia” value (Part 2, 100 mg QD (N = 31)) was 1 (3.2) n (%) and the “TEAE leading to permanent withdrawal from study drug: Investigations” value (Part 2, 100 mg QD (N = 31)) was 1 (3.2) n (%). The “TEAE leading to permanent withdrawal from study drug: Metabolism and nutrition disorders” value (Part 2, 100 mg QD (N = 31)) was 1 (3.2) n (%), the “TEAE leading to permanent withdrawal from study drug: Muscle spasms” value (Part 2, 100 mg QD (N = 31)) was 1 (3.2) n (%) and the “TEAE leading to permanent withdrawal from study drug: Musculoskeletal and connective tissue disorders” value (Part 2, 100 mg QD (N = 31)) was 1 (3.2) n (%). For the same molecule, the “Subjects with muscle spasms (PT)” value (Part 2, 100 mg QD cohort) was 3 (9.7%), the “Subjects with ≥1 moderate on-treatment TEAE” value (Part 2, 100 mg QD cohort) was 12 (38.7%) and the “Dose titration: Hyperkalemia, subjects n (%)” value (Total active (N 190)) was 7 (4.1%). The “Dose titration: Hyponatremia, subjects n (%)” value (Total active (N 190)) was 1 (0.5%), the “Dose titration: Other possibly related, subjects n (%)” value (Total active (N 190)) was 0 and the “Dose titration: Other unrelated, subjects n (%)” value (Total active (N 190)) was 1 (0.5%). For the same molecule, the “Study drug discontinuation: Hyperkalemia, subjects n (%)” value (Total active (N 190)) was 6 (3.2%), the “Study drug discontinuation: Hyponatremia, subjects n (%)” value (Total active (N 190)) was 1 (0.5%) and the “Study drug discontinuation: Hypotension, subjects n (%)” value (Total active (N 190)) was 3 (1.6%). For the same molecule, the “Study drug discontinuation: Other possibly related, subjects n (%)” value (Total active (N 190)) was 1 (0.5%), the “Study drug discontinuation: Other unrelated, subjects n (%)” value (Total active (N 190)) was 12 (6.3%) and the “Subjects who developed orthostatic hypotension” value (fall of 20 mmHg SBP or 10 mmHg DBP sitting to standing) was “three”. The “Episodes of severe hyperkalemia” value (pooled (Part 1 and Part 2) 100 mg QD safety set (n=60)) was “no episodes of severe hyperkalemia”, the “Subjects with hypotension related to treatment” value (two in 100 mg QD cohorts (Part 1, Part 2), one in 12.5 mg BID) was “three” and the “Serious adverse events (SAEs) related to the study medication” value (whole trial (Example 1 analysis)) was “No serious adverse events (SAEs) related to the study medication were observed”.

Source: patent publication US20260053811A1, “METHODS OF TREATING HYPERTENSION IN OBESE SUBJECTS” (Mineralys Therapeutics, Inc., priority 2022, published 2026)
